Source: patent US6869929B2, “Use of transcription factors for treating inflammation and other diseases” (Beth Israel Deaconess Medical Center, priority 2000, dated 2005)

Tests used:
Assay type in all cases: cell-based, human
ESE-1 promoter = ESE-1 promoter luciferase construct (pXP2/ESE-1) transfection; conditions: U-138 MG cells; 16 h
Method: Cotransfections of 3-8×10^5 cells were carried out with 600 ng reporter gene construct DNA and 200 ng expression vector DNA using LipofectAMINE PLUS (Gibco-BRL) for 16 hours as described (Oettgen, P., et al. et al., 1997, Mol Cell Biol 17:4419-33). Transfections were performed independently in duplicate and repeated 3 to 4 times with different plasmid preparations with similar results.
To investigate the molecular mechanism by which IL-1 β and LPS regulate ESE-1 expression, we examined the response of an ESE-1 promoter luciferase construct after transfection using two cytokine responsive non-epithelial cell types, U-138 MG human glial cells and RAW 264.7 cells, a murine macrophage cell line (Oettgen, P., et al. 1999, Genomics 55:358-62). Whereas the parental pXP2 vector was not stimulated by IL-1β, in U-138 MG cells, IL-1β increased ESE-1 promoter activity up to 5-fold (FIG. 12a). Similarly, LPS enhanced ESE-1 promoter activity ˜9-fold in RAW 264.7 cells (FIG. 12b).

ESE-1 [1] = assay: ESE-1 mRNA RT-PCR in RA synovial fibroblasts; conditions: 4th passage RA synovial fibroblasts
Method: Tissues from patients with rheumatoid arthritis (RA) were obtained as discarded materials from total joint replacement surgery or synovectomy. RA synovial tissue samples were cultured for the generation of adherent synovial fibroblasts. Dispersed synovial tissues were prepared by a previously published method (Goldring, S. R., et al. 1983. The synovial-like membrane at the bone-cement interface in loose total hip replacements and its proposed role in bone lysis. J Bone Joint Surg 65:575-84). Cells were subjected to 2-4 passages and stimulated with IL-1β (R&D Systems) at 100 pg/ml or with TNF-α (R&D Systems) at 5 ng/ml.
cDNAs were generated from 1 μg of total RNA using Ready-To-Go™ You-prime First-Strand Beads (Amersham Pharmacia Biotech Inc). RT-PCR amplifications of 0.1 μg cDNA were carried out using a MJResearch thermal cycler PTC-100 as follows: 5 min at 94° C., 20-37 cycles of 30 sec at 94° C., 30 sec at 56° C., and 30 sec at 72° C., followed by 5 min at 72° C. (Oettgen, P., et al. 2000, J Biol Chem 275:1216-25). The sequences of the human ESE-1 primers and the primers for human GAPDH were as described (Oettgen, P., et al. 1999, J Biol Chem 274:29439-52).
The synovium in RA is comprised of heterogeneous cell populations including monocyte/macrophages, lymphocytes and synovial fibroblasts. To evaluate whether ESE-1 expression in synovial fibroblasts is regulated by proinflammatory cytokines, 4th passage synovial fibroblasts isolated from RA synovium were stimulated for different times with IL-1β in the absence or presence of indomethacin. […] They also indicate that cytokine-induced prostaglandins may modulate steady state ESE-1 mRNA levels. […] We, therefore, focused our attention in further studies on IL-1β.

ESE-1 [2] = assay: ESE-1 mRNA Northern blot in LB-12 osteoblasts; conditions: LB-12 cells; 1, 2, 6, 24 hours
Method: U-87 Mg and U-138 Mg (human glioma), THP-1 (human monocytic), RAW 264.7 (murine monocytic), LB-12 (human osteoblast-like large T antigen transformed bone marrow stromal cells), and human chondrocytes were grown and treated with cytokines as described (Apperley, J., et al. 1990. J Bone Mineral Res. 5:S93; Goldring, M. B., et al. 1994. J Clin Invest 94:2307-16; Goldring, S. R., et al. 1983. J Bone Joint Surg 65:575-84; Libermann, T. A., et al. 1987. Embo J. 6:1627-1632).
Total RNA was harvested using QIAshreder (Qiagen) and RNeasy® Mini Kit (Quiagen) or Trizol (Gibco BRL). Poly A^+ RNA was prepared with MicroPoly(A) Pure (Ambion). Northern blots (5 μg total RNA) were hybridized using a full length ESE-1 cDNA probe as described (Oettgen, P., et al. et al. 1997, Mol Cell Biol 17:4419-33.).
Osteoblasts, the bone cells responsible for bone formation, represent another connective tissue cell target of inflammatory cytokines in joint disorders (Bogoch, E. R., and E. Moran. 1998, Can J Surg 41:264-71). […] LB-12 cells were incubated for different times in the absence or presence of IL-1β. […] Since the rapid, but transient induction of ESE-1 resembles that of immediate early genes, we tested the effect of the protein synthesis inhibitor cycloheximide which superinduces expression of certain genes due to mRNA stabilization. Cycloheximide alone had no effect, but superinduced IL-1β-mediated ESE-1 mRNA expression (FIG. 11d).

increase in ESE-1 promoter activity (ESE-1 promoter): up to 5 fold
Substance: IL-1β: interleukin-1 beta, proinflammatory cytokine
ESE-1 mRNA expression, agent alone (ESE-1 [1]): strongly induced transient ESE-1 expression
ESE-1 mRNA expression, agent alone (ESE-1 [2]): rapidly induced
